In PubChem BioAssay AID248 (DTP/NCI, 2004):
Toxic doses and inconclusive results are not listed. Rule as the data show it: active = T/C of 150% or more; inactive = T/C below 125%.

Test system: L1210 leukemia ip in BDF1 mice, survival T/C
Assay: NCI In Vivo Anticancer Drug Screen. Data for tumor model L1210 Leukemia (intraperitoneal) in B6D2F1 (BDF1) mice
Conditions: endpoint: mean survival time, higher = longer survival
Procedure, shortened: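 Transplanted-tumor mice were given test agent; controls received vehicle only. Survival readings from the two groups were divided (treated over control).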

[1] = dose: 25.0 mg/kg/injection, schedule: Q01DX009 (ip), vehicle: Klucel (hydroxypropylcellulose) (HPC)
[2] = dose: 50.0 mg/kg/injection, schedule: Q01DX009 (ip), vehicle: Klucel (hydroxypropylcellulose) (HPC)
[3] = dose: 100.0 mg/kg/injection, schedule: Q04DX003 (ip), vehicle: saline with Tween-80
[4] = dose: 200.0 mg/kg/injection, schedule: Q04DX003 (ip), vehicle: saline with Tween-80
[5] = dose: 50.0 mg/kg/injection, schedule: Q01DX009 (ip), vehicle: saline
[6] = dose: 100.0 mg/kg/injection, schedule: Q01DX009 (ip), vehicle: saline
[7] = dose: 100.0 mg/kg/injection, schedule: Q01DX001 (ip), vehicle: carboxymethylcellulose (CMC)
[8] = dose: 200.0 mg/kg/injection, schedule: Q01DX001 (ip), vehicle: carboxymethylcellulose (CMC)
[9] = dose: 400.0 mg/kg/injection, schedule: Q01DX001 (ip), vehicle: carboxymethylcellulose (CMC)
[10] = dose: 400.0 mg/kg/injection, schedule: Q04DX003 (ip), vehicle: saline with Tween-80
[11] = dose: 100.0 mg/kg/injection, schedule: Q01DX009 (ip), vehicle: Klucel (hydroxypropylcellulose) (HPC)
[12] = dose: 100.0 mg/kg/injection, schedule: Q04DX003 (ip), vehicle: Klucel (hydroxypropylcellulose) (HPC)
[13] = dose: 200.0 mg/kg/injection, schedule: Q04DX003 (ip), vehicle: Klucel (hydroxypropylcellulose) (HPC)
[14] = dose: 400.0 mg/kg/injection, schedule: Q04DX003 (ip), vehicle: Klucel (hydroxypropylcellulose) (HPC)

Measured: T/C

O=C(/C=C/c1cccc([N+](=O)[O-])c1)c1cccc([N+](=O)[O-])c1
inactive: dose: 12.5 mg/kg/injection, schedule: Q01DX009 (ip), vehicle: Klucel (hydroxypropylcellulose) (HPC) 94 % of control | [1] 92 % of control | dose: 25.0 mg/kg/injection, schedule: Q04DX003 (ip), vehicle: Klucel (hydroxypropylcellulose) (HPC) 94 % of control | [2] 87 % of control | dose: 50.0 mg/kg/injection, schedule: Q04DX003 (ip), vehicle: Klucel (hydroxypropylcellulose) (HPC) 103 % of control

CCCCOC1OCN(C(C)(C)C)CC1(C)C (configuration not stated)
inactive: dose: 100.0 mg/kg/injection, schedule: Q04DX002 (ip), vehicle: saline 104 % of control | dose: 200.0 mg/kg/injection, schedule: Q04DX002 (ip), vehicle: saline 112 % of control | dose: 400.0 mg/kg/injection, schedule: Q04DX002 (ip), vehicle: saline 101 % of control

C[n+]1ccccc1/C=C/c1ccnc2c(O)cccc12
inactive: dose: 75.0 mg/kg/injection, schedule: Q01DX001 (ip), vehicle: carboxymethylcellulose (CMC) 107 % of control | dose: 150.0 mg/kg/injection, schedule: Q01DX001 (ip), vehicle: carboxymethylcellulose (CMC) 102 % of control

COC(=O)C(=C(c1ccccc1)c1ccccc1)c1ccccc1
inactive: [3] 90 % of control | [4] 90 % of control

CC1(C)OCC(C2OC3OC(c4ccccc4)=NC3C2O)O1 (configuration not stated)
inactive: dose: 100.0 mg/kg/injection, schedule: Q01DX001 (ip), vehicle: Klucel (hydroxypropylcellulose) (HPC) 96 % of control | dose: 200.0 mg/kg/injection, schedule: Q01DX001 (ip), vehicle: Klucel (hydroxypropylcellulose) (HPC) 104 % of control | dose: 400.0 mg/kg/injection, schedule: Q01DX001 (ip), vehicle: Klucel (hydroxypropylcellulose) (HPC) 101 % of control

NCCc1cc(O)c(O)c(O)c1
inactive: [5] 104 % of control | [6] 113 % of control

COC1CCC2CC3(CCC2(C)C1O)OCCO3 (configuration not stated)
inactive: [7] 100 % of control | [8] 105 % of control | [9] 97 % of control

COC(=O)C1CN1C(c1ccccc1)(c1ccccc1)c1ccccc1 (configuration not stated)
inactive: dose: 100.0 mg/kg/injection, schedule: Q01DX001 (ip), vehicle: saline with Tween-80 92 % of control | [3] 94 % of control | dose: 200.0 mg/kg/injection, schedule: Q01DX001 (ip), vehicle: saline with Tween-80 100 % of control | [4] 98 % of control | dose: 400.0 mg/kg/injection, schedule: Q01DX001 (ip), vehicle: saline with Tween-80 90 % of control | [10] 90 % of control

O=C(OCC1OC(OC(=O)c2ccccc2)C(OC(=O)c2ccccc2)C(OC(=O)c2ccccc2)C1OC(=O)c1ccccc1)c1ccccc1 (configuration not stated)
inactive: dose: 100.0 mg/kg/injection, schedule: Q01DX001 (ip), vehicle: saline 98 % of control | dose: 200.0 mg/kg/injection, schedule: Q01DX001 (ip), vehicle: saline 98 % of control | dose: 400.0 mg/kg/injection, schedule: Q01DX001 (ip), vehicle: saline 106 % of control

COc1cc(Br)c(CCBr)cc1OC
inactive: [1] 98 % of control | [2] 94 % of control | [11] 100 % of control | [3] 96 % of control | [4] 94 % of control | [10] 104 % of control

COCC1OC(n2cnc3c(N(C)C)ncnc32)C(OC)C1OC (configuration not stated)
inactive: dose: 50.0 mg/kg/injection, schedule: Q01DX005 (ip), vehicle: saline 112 % of control | dose: 100.0 mg/kg/injection, schedule: Q01DX005 (ip), vehicle: saline 102 % of control | dose: 200.0 mg/kg/injection, schedule: Q01DX005 (ip), vehicle: saline 96 % of control

CC(C(O)c1ccccc1)[n+]1ccccc1 (configuration not stated)
inactive: dose: 75.0 mg/kg/injection, schedule: Q01DX001 (ip), vehicle: saline 102 % of control

COc1ccc(OC)c2cc3ccccc3cc12
inactive: [7] 106 % of control | [8] 104 % of control | [9] 93 % of control

c1ccc2c(c1)ccc1c[n+]3c4ccccc4ccc3n12
inactive: dose: 0.62 mg/kg/injection, schedule: Q01DX009 (ip), vehicle: saline 105 % of control | dose: 1.25 mg/kg/injection, schedule: Q01DX009 (ip), vehicle: saline 113 % of control | dose: 2.5 mg/kg/injection, schedule: Q01DX009 (ip), vehicle: saline 123 % of control | dose: 5.0 mg/kg/injection, schedule: Q04DX003 (ip), vehicle: saline 106 % of control | dose: 10.0 mg/kg/injection, schedule: Q01DX001 (ip), vehicle: saline 109 % of control | dose: 20.0 mg/kg/injection, schedule: Q01DX001 (ip), vehicle: saline 105 % of control

O=C1C(F)=C(N2CC2)C(=O)C(F)=C1N1CC1
inactive: dose: 0.39 mg/kg/injection, schedule: Q01DX009 (ip), vehicle: Klucel (hydroxypropylcellulose) (HPC) 104 % of control | dose: 0.78 mg/kg/injection, schedule: Q01DX009 (ip), vehicle: Klucel (hydroxypropylcellulose) (HPC) 100 % of control | dose: 0.78 mg/kg/injection, schedule: Q04DX003 (ip), vehicle: alcohol 113 % of control | dose: 1.56 mg/kg/injection, schedule: Q01DX009 (ip), vehicle: Klucel (hydroxypropylcellulose) (HPC) 116 % of control | dose: 1.56 mg/kg/injection, schedule: Q04DX003 (ip), vehicle: alcohol 105 % of control | dose: 3.12 mg/kg/injection, schedule: Q01DX009 (ip), vehicle: Klucel (hydroxypropylcellulose) (HPC) 102 % of control | dose: 3.12 mg/kg/injection, schedule: Q04DX003 (ip), vehicle: alcohol 105 % of control | dose: 6.25 mg/kg/injection, schedule: Q01DX009 (ip), vehicle: Klucel (hydroxypropylcellulose) (HPC) 93 % of control | dose: 6.25 mg/kg/injection, schedule: Q04DX003 (ip), vehicle: saline 110 % of control | dose: 9.2 mg/kg/injection, schedule: Q01DX009 (ip), vehicle: Klucel (hydroxypropylcellulose) (HPC) 98 % of control | dose: 14.0 mg/kg/injection, schedule: Q01DX009 (ip), vehicle: Klucel (hydroxypropylcellulose) (HPC) 87 % of control

CCCCCCCCCC1=NN(C2=NCCCC2)C(=O)C1
inactive: [12] 100 % of control | [13] 101 % of control | [14] 95 % of control

Cc1ccccc1/C=N/Nc1nnc(N/N=C/c2ccccc2C)c2ccccc12
inactive: [7] 91 % of control | [8] 109 % of control | [9] 95 % of control

[O-][n+]1ccnc(C(Cl)(Cl)Cl)c1Cl
inactive: dose: 0.78 mg/kg/injection, schedule: Q01DX009 (ip), vehicle: other 90 % of control | dose: 1.56 mg/kg/injection, schedule: Q01DX009 (ip), vehicle: other 107 % of control | dose: 3.12 mg/kg/injection, schedule: Q01DX009 (ip), vehicle: other 86 % of control

O=C1NNC(c2ccccc2)C1c1ccccc1 (configuration not stated)
inactive: [7] 93 % of control | [8] 95 % of control | [9] 97 % of control

CNc1ccccc1C(N)=S
inactive: [5] 111 % of control | dose: 50.0 mg/kg/injection, schedule: Q04DX003 (ip), vehicle: saline 106 % of control | [6] 97 % of control | dose: 100.0 mg/kg/injection, schedule: Q04DX003 (ip), vehicle: saline 105 % of control | dose: 200.0 mg/kg/injection, schedule: Q01DX009 (ip), vehicle: saline 101 % of control | dose: 200.0 mg/kg/injection, schedule: Q04DX003 (ip), vehicle: saline 105 % of control

CNC(=O)C(C)(C)c1ccccc1
inactive: [11] 97 % of control | [12] 96 % of control | dose: 200.0 mg/kg/injection, schedule: Q01DX009 (ip), vehicle: Klucel (hydroxypropylcellulose) (HPC) 95 % of control | [13] 95 % of control | dose: 400.0 mg/kg/injection, schedule: Q01DX009 (ip), vehicle: Klucel (hydroxypropylcellulose) (HPC) 97 % of control | [14] 95 % of control

NC(=S)c1ccccc1N
inactive: dose: 15.0 mg/kg/injection, schedule: Q01DX Z (ip), vehicle: methylcellulose (MC) 110 % of control | dose: 30.0 mg/kg/injection, schedule: Q01DX Z (ip), vehicle: methylcellulose (MC) 98 % of control | dose: 60.0 mg/kg/injection, schedule: Q01DX Z (ip), vehicle: methylcellulose (MC) 101 % of control | dose: 120.0 mg/kg/injection, schedule: Q01DX Z (ip), vehicle: methylcellulose (MC) 115 % of control
